Data published in patent US8044079B2, “Substituted oxindole derivatives, medicaments containing said derivatives and use thereof” (Abbott GmbH & Co. KG, priority 2005, dated 2011).

The compounds below were run against T1, human vasopressin V1b receptor (Homo sapiens, UniProt P47901) (assay: Vasopressin V1b receptor binding test). Details: membranes of CHO-K1 cells with human V1b receptor, displacement of 1.5 nM 3H-AVP; for compounds with more than one stereogenic center the diastereomer with greater affinity.
T1 construct: expressed in transfected cells; host or cells: CHO-K1 (cell line hV1b_3H2_CHO), membrane preparation
T1 sequence (P47901 1-424): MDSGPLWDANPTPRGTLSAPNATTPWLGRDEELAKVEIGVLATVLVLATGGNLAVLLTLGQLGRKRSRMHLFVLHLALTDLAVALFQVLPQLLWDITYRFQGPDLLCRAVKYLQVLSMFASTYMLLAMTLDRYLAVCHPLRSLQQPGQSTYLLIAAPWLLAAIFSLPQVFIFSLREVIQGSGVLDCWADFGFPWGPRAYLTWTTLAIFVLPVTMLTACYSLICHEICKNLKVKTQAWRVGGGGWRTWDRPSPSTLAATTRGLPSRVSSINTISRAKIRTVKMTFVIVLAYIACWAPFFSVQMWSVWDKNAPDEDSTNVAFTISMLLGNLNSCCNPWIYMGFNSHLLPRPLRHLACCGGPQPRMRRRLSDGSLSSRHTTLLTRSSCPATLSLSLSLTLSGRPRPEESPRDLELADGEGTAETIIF
Outline: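 Affinity constants (Ki) came from nonlinear regression of triplicate scintillation counts after filtration separated bound from free radioligand. Compounds competed at human V1b membranes for 60 min, room temperature, in pH 7.4 tris/MgCl2/BSA buffer with 2% DMSO; 1 μM AVP defined nonspecific binding.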

First: COc1ccc(CN2CCN(C)CC2)cc1C1(N2CCC[C@H]2c2ncco2)C(=O)N(S(=O)(=O)c2ccc(C#N)cc2)c2ccc(Cl)cc21 (stereo partly drawn) [Example 81, 5-Chloro-1-(4-cyanobenzenesulfonyl)-3-[2-methoxy-5-(4-methylpiperazin-1-ylmethyl)phenyl]-3-((S)-2-oxazol-2-yl-pyrrolidin-1-yl)-1,3-dihydroindol-2-one]
Second: COc1ccc(CN2CCN(C)CC2)cc1C1(N2CCC[C@H]2c2ncco2)C(=O)N(S(=O)(=O)c2ccc(F)cc2)c2ccc(Cl)cc21 (stereo partly drawn) [Example 82, 5-Chloro-1-(4-fluorobenzenesulfonyl)-3-[2-methoxy-5-(4-methylpiperazin-1-ylmethyl)phenyl]-3-((S)-2-oxazol-2-yl-pyrrolidin-1-yl)-1,3-dihydroindol-2-one]
The Ki of the first is lower: 10 to 100 nM for the first, 100 to 1000 nM for the second. The first binds more tightly here.

Compared with `COc1ccc(CN2CCN(C)CC2)cc1C1(N2CCC[C@H]2c2ncco2)C(=O)N(S(=O)(=O)c2ccccc2)c2ccc(Cl)cc21` (stereo partly drawn) [Example 84, 1-(Benzenesulfonyl)-5-chloro-3-[2-methoxy-5-(4-methylpiperazin-1-ylmethyl)phenyl]-3-((S)-2-oxazol-2-yl-pyrrolidin-1-yl)-1,3-dihydroindol-2-one], `CCc1ccc(S(=O)(=O)N2C(=O)C(c3cc(CN4CCN(C)CC4)ccc3OC)(N3CCC[C@H]3c3ncco3)c3cc(Cl)ccc32)cc1` (stereo partly drawn) [Example 85, 5-Chloro-1-(4-ethylbenzenesulfonyl)-3-[2-methoxy-5-(4-methylpiperazin-1-ylmethyl)phenyl]-3-((S)-2-oxazol-2-yl-pyrrolidin-1-yl)-1,3-dihydroindol-2-one] is lower in Ki: 100 to 1000 nM for the first, 10 to 100 nM for the second.

`COc1ccc(S(=O)(=O)N2C(=O)C(c3cc(CN4CCN(C)CC4)ccc3OC)(N3CCC[C@H]3c3ncco3)c3cc(Cl)ccc32)c(OC)c1` (stereo partly drawn) [Example 86, 5-Chloro-1-(2,4-dimethoxybenzenesulfonyl)-3-[2-methoxy-5-(4-methylpiperazin-1-ylmethyl)phenyl]-3-((S)-2-oxazol-2-yl-pyrrolidin-1-yl)-1,3-dihydroindol-2-one] and `COc1ccc(S(=O)(=O)N2C(=O)C(c3cc(CN4CCN(C)CC4)ccc3OC)(N3CCC[C@H]3c3ncco3)c3cc(Cl)ccc32)cc1F` (stereo partly drawn) [Example 87, 5-Chloro-1-(3-fluoro-4-methoxybenzenesulfonyl)-3-[2-methoxy-5-(4-methylpiperazin-1-ylmethyl)phenyl]-3-((S)-2-oxazol-2-yl-pyrrolidin-1-yl)-1,3-dihydroindol-2-one] fall in the same range of Ki: 10 to 100 nM for the first, 10 to 100 nM for the second.

`CCN1CCN(Cc2ccc(OC)c(C3(N4CCC[C@H]4c4ncco4)C(=O)N(S(=O)(=O)c4ccc(OC)cc4)c4ccc(Cl)cc43)c2)CC1` (stereo partly drawn) [Example 88, 5-Chloro-3-[5-(4-ethylpiperazin-1-ylmethyl)-2-methoxyphenyl]-1-(4-methoxybenzenesulfonyl)-3-((S)-2-oxazol-2-yl-pyrrolidin-1-yl)-1,3-dihydroindol-2-one] and `COc1ccc(S(=O)(=O)N2C(=O)C(c3cc(CN4CCN(CCO)CC4)ccc3OC)(N3CCC[C@H]3c3ncco3)c3cc(Cl)ccc32)cc1` (stereo partly drawn) [Example 92, 5-Chloro-3-{5-[4-(2-hydroxyethyl)piperazin-1-ylmethyl]-2-methoxyphenyl}-1-(4-methoxybenzenesulfonyl)-3-((S)-2-oxazol-2-yl-pyrrolidin-1-yl)-1,3-dihydroindol-2-one] cannot be ordered by Ki: under 10 nM for the first, under 10 nM for the second.

First: COc1ccc(S(=O)(=O)N2C(=O)C(c3cc(CN4CCN(C(C)C)CC4)ccc3OC)(N3CCC[C@H]3c3ncco3)c3cc(Cl)ccc32)cc1 (stereo partly drawn) [Example 89, 5-Chloro-3-[5-(4-isopropylpiperazin-1-ylmethyl)-2-methoxyphenyl]-1-(4-methoxybenzenesulfonyl)-3-((S)-2-oxazol-2-yl-pyrrolidin-1-yl)-1,3-dihydroindol-2-one]
Second: COc1ccc(S(=O)(=O)N2C(=O)C(c3cc(CN4CCN(C(C)C)CC4)ccc3OC)(N3CCC[C@H]3c3ncco3)c3cc(C#N)ccc32)cc1 (stereo partly drawn) [Example 94, 5-Cyano-3-[5-(4-isopropylpiperazin-1-ylmethyl)-2-methoxyphenyl]-1-(4-methoxybenzenesulfonyl)-3-((S)-2-oxazol-2-yl-pyrrolidin-1-yl)-1,3-dihydroindol-2-one]
The Ki of the first is lower: under 10 nM for the first, 10 to 100 nM for the second.

`COc1ccc(S(=O)(=O)N2C(=O)C(c3cc(CN4CCN(C(C)=O)CC4)ccc3OC)(N3CCC[C@H]3c3ncco3)c3cc(Cl)ccc32)cc1` (stereo partly drawn) [Example 90, 3-[5-(4-Acetylpiperazin-1-ylmethyl)-2-methoxyphenyl]-5-chloro-1-(4-methoxybenzenesulfonyl)-3-((S)-2-oxazol-2-yl-pyrrolidin-1-yl)-1,3-dihydroindol-2-one] and `COc1ccc(S(=O)(=O)N2C(=O)C(c3cc(CN4CCN(C(C)=O)CC4)ccc3OC)(N3CCC[C@H]3c3ncco3)c3cc(C#N)ccc32)cc1` (stereo partly drawn) [Example 95, 5-Cyano-3-[5-(4-acetylpiperazin-1-ylmethyl)-2-methoxyphenyl]-1-(4-methoxybenzenesulfonyl)-3-((S)-2-oxazol-2-yl-pyrrolidin-1-yl)-1,3-dihydroindol-2-one] fall in the same range of Ki: 10 to 100 nM for the first, 10 to 100 nM for the second.

First: COc1ccc(S(=O)(=O)N2C(=O)C(c3cc(CN4CCCN(C)CC4)ccc3OC)(N3CCC[C@H]3c3ncco3)c3cc(Cl)ccc32)cc1 (stereo partly drawn) [Example 91, 5-Chloro-1-(4-methoxybenzenesulfonyl)-3-[2-methoxy-5-(4-methyl-[1,4]diazepan-1-ylmethyl)phenyl]-3-((S)-2-oxazol-2-yl-pyrrolidin-1-yl)-1,3-dihydroindol-2-one]
Second: COc1ccc(S(=O)(=O)N2C(=O)C(c3cc(CN4CCOCC4)ccc3OC)(N3CCC[C@H]3c3ncco3)c3cc(Cl)ccc32)cc1 (stereo partly drawn) [Example 96, 5-Chloro-1-(4-methoxybenzenesulfonyl)-3-(2-methoxy-5-(morpholin-4-ylmethyl)phenyl)-3-((S)-2-oxazol-2-yl-pyrrolidin-1-yl)-1,3-dihydroindol-2-one]
The Ki of the first is lower: under 10 nM for the first, 10 to 100 nM for the second.

First: COc1ccc(S(=O)(=O)N2C(=O)C(c3cc(CNCCO)ccc3OC)(N3CCC[C@H]3c3ncco3)c3ccc(Cl)cc32)cc1 (stereo partly drawn) [Example 93, 6-Chloro-3-{5-[(2-hydroxyethylamino)methyl]-2-methoxyphenyl}-1-(4-methoxybenzenesulfonyl)-3-((S)-2-oxazol-2-yl-pyrrolidin-1-yl)-1,3-dihydroindol-2-one]
Second: CCCNCc1ccc(C2(N3CCC[C@H]3c3ncco3)C(=O)N(S(=O)(=O)c3ccc(OC)cc3)c3ccc(C#N)cc32)c(OC)c1 (stereo partly drawn) [Example 99, 5-Cyano-1-(4-methoxybenzenesulfonyl)-3-(2-methoxy-4-(propylaminomethyl)phenyl)-3-((S)-2-oxazol-2-yl-pyrrolidin-1-yl)-1,3-dihydroindol-2-one]
The Ki of the first is higher: 100 to 1000 nM for the first, 10 to 100 nM for the second.

`CNCc1ccc(C2(N3CCC[C@H]3c3ncco3)C(=O)N(S(=O)(=O)c3ccc(OC)cc3)c3ccc(C#N)cc32)c(OC)c1` (stereo partly drawn) [Example 97, 5-Cyano-1-(4-methoxybenzenesulfonyl)-3-(2-methoxy-4-methylaminomethylphenyl)-3-((S)-2-oxazol-2-yl-pyrrolidin-1-yl)-1,3-dihydroindol-2-one] and `CCNCc1ccc(C2(N3CCC[C@H]3c3ncco3)C(=O)N(S(=O)(=O)c3ccc(OC)cc3)c3ccc(C#N)cc32)c(OC)c1` (stereo partly drawn) [Example 98, 5-Cyano-3-(4-ethylaminomethyl-2-methoxyphenyl)-1-(4-methoxybenzenesulfonyl)-3-((S)-2-oxazol-2-yl-pyrrolidin-1-yl)-1,3-dihydroindol-2-one] fall in the same range of Ki: 10 to 100 nM for the first, 10 to 100 nM for the second.
